Measurements as given in patent US20250129078A1, “ERBB2 INHIBITORS” (Cogent Biosciences, Inc., priority 2023, published 2025).

What was measured:
ErbB2 V777L = ErbB2 V777L (Homo sapiens (Human), UniProt P04626, V777L); assay: ErbB enzyme assay (CisBio HTRF-KinEASE-TK), ErbB2 V777L; assay type: biochemical
Method: In vitro enzyme assays based on CisBio HTRF-KinEASE-TK technology were used to determine compound potencies. […] After another 1 h incubation at ambient temperature, the extent of substrate phosphorylation was determined using a PerkinElmer EnVision multimode plate reader via time-resolved fluorescence dual wavelength detection. The percent of control (POC) was calculated using the ratio of emission at […] to the emission at 620 nm. One hundred POC was determined using DMSO only controls (no test compounds present) and zero POC was determined using pre-quenched controls reactions. A 4-parameter logistic equation was fit to the POC values as a function of the test compound concentration and the IC50 value was determined as the point where the curve crossed 50 POC.

EGFR WT = EGFR WT (Homo sapiens (Human), UniProt P00533); assay: ErbB enzyme assay (CisBio HTRF-KinEASE-TK), EGFR WT; assay type: biochemical; settings: ATP at Km (25 μM), 1 h incubation
In short: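 Three-fold DMSO serial dilutions were added to kinase reactions and incubated 1 h at room temperature. Quench used 62.5 nM Sa-XL665 plus 0.25×TK-Ab-Cryptate in detection buffer, followed by another 1 h. Substrate phosphorylation was then measured by dual-wavelength HTRF.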

ErbB2 V777L, sequence (P04626 23-1255 V777L): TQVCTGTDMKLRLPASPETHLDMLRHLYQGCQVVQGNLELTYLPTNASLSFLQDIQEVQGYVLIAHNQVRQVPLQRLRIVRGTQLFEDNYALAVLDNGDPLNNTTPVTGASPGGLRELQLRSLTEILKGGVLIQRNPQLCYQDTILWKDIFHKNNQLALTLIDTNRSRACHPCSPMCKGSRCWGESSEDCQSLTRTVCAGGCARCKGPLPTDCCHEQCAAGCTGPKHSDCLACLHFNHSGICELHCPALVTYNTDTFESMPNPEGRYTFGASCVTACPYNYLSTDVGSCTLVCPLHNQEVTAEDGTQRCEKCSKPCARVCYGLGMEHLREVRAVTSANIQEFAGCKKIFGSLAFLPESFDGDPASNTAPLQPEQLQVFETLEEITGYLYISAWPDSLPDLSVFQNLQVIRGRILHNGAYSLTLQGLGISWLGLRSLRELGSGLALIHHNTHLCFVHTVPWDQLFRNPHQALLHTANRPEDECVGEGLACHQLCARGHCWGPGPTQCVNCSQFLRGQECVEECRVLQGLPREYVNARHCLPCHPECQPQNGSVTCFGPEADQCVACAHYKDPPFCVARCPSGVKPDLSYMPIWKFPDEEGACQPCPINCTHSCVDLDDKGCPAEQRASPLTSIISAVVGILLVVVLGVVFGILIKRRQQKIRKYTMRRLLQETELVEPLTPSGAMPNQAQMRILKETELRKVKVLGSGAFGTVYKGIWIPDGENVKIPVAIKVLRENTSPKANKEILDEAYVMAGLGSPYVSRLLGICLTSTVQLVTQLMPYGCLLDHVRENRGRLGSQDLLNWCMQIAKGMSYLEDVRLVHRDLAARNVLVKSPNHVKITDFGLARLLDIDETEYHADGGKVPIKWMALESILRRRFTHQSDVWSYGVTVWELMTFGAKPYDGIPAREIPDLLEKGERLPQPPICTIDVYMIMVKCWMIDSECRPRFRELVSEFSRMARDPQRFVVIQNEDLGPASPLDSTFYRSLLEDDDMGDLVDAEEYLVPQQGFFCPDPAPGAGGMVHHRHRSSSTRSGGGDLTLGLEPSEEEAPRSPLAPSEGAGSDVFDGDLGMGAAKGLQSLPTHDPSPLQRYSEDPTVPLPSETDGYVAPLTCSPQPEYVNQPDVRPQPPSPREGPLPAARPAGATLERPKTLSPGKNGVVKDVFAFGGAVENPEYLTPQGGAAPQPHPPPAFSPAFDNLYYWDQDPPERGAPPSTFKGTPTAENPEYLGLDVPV
EGFR WT, sequence (P00533 25-1210): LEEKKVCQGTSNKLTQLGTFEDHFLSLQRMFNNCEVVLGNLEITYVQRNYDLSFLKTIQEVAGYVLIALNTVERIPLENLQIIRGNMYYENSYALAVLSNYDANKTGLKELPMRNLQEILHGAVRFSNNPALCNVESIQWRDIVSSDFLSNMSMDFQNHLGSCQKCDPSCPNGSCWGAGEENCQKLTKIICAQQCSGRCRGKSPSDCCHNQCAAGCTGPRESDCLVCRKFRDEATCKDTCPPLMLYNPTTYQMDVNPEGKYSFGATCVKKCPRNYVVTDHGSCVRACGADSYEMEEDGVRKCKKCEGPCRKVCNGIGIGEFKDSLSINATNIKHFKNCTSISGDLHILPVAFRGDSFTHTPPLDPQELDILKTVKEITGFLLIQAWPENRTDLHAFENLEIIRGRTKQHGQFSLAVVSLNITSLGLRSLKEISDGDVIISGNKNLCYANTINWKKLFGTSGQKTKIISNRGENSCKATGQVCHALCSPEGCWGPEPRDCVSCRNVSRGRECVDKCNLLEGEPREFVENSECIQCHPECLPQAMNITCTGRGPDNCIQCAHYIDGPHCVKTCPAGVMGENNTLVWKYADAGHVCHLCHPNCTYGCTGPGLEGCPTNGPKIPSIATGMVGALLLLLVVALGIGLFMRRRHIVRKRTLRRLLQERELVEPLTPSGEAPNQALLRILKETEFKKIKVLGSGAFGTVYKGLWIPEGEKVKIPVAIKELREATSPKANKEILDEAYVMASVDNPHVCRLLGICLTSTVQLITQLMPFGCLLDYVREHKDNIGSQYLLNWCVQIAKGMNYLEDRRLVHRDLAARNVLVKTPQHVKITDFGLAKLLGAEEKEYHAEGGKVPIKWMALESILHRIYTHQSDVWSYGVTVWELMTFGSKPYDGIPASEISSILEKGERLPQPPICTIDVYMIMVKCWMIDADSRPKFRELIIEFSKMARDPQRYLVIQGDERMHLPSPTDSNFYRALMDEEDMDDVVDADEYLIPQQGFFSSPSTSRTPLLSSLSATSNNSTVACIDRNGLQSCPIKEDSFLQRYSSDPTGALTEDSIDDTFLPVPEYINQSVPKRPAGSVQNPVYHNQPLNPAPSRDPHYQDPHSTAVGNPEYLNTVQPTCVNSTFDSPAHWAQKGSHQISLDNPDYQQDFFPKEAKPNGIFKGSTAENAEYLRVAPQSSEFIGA

Work on `C=CC(=O)N1CCN(c2ccc3ncnc(Nc4cc(C)c(Oc5ccc6c(c5)nnn6C)cc4F)c3n2)CC1` [Compound 94, 1-(4-(4-((2-fluoro-5-methyl-4-((1-methyl-1H-benzo[d][1,2,3]triazol-5-yl)oxy)phenyl)amino)pyrido[3,2-d]pyrimidin-6-yl)piperazin-1-yl)prop-2-en-1-one] yielded an IC50 (ErbB2 V777L) of 50 to 100 nM and an IC50 (EGFR WT) of 100 to 500 nM.
`C=CC(=O)N[C@]1(C)CCN(c2ccc3ncnc(Nc4ccc(Oc5ccc6c(c5)nnn6C)c(C)c4F)c3n2)C1` [Compound 270, (R)-N-(1-(4-((2-fluoro-3-methyl-4-((1-methyl-1H-benzo[d][1,2,3]triazol-5-yl)oxy)phenyl)amino)pyrido[3,2-d]pyrimidin-6-yl)-3-methylpyrrolidin-3-yl)acrylamide] showed an IC50 (ErbB2 V777L) of 50 to 100 nM and an IC50 (EGFR WT) of 100 to 500 nM.
Compound `C=C1CCN(C2CCN(c3ncc4ncnc(Nc5ccc(Oc6ccn7ncnc7c6)c(C)c5)c4n3)CC2)C1=O` [Compound 240, 1-(1-(8-((4-([1,2,4]triazolo[1,5-a]pyridin-7-yloxy)-3-methylphenyl)amino)pyrimido[5,4-d]pyrimidin-2-yl)piperidin-4-yl)-3-methylenepyrrolidin-2-one] has an IC50 (ErbB2 V777L) of 100 to 500 nM and an IC50 (EGFR WT) of no less than 1000 nM.
`C=CC(=O)N1CCN(c2ncc3ncnc(Nc4ccc(Oc5cc6nnn(C)c6c(F)c5C)c(C)c4F)c3n2)C[C@H]1C` [Compound 176, (R)-1-(4-(8-((2-fluoro-4-((7-fluoro-1,6-dimethyl-1H-benzo[d][1,2,3]triazol-5-yl)oxy)-3-methylphenyl)amino)pyrimido[5,4-d]pyrimidin-2-yl)-2-methylpiperazin-1-yl)prop-2-en-1-one] gave an IC50 (ErbB2 V777L) of 500 to 1000 nM and an IC50 (EGFR WT) of 100 to 500 nM.
`C=CC(=O)N1CCN(c2ncc3ncnc(Nc4ccc(Oc5ccc6c(c5)nnn6C)c(C)c4)c3n2)C[C@@H]1CC` [Compound 115, (S)-1-(2-ethyl-4-(8-((3-methyl-4-((1-methyl-1H-benzo[d][1,2,3]triazol-5-yl)oxy)phenyl)amino)pyrimido[5,4-d]pyrimidin-2-yl)piperazin-1-yl)prop-2-en-1-one] was tested, and the IC50 (ErbB2 V777L) was 500 to 1000 nM and the IC50 (EGFR WT) was no less than 1000 nM.
In the case of `C=C1CCN([C@@H]2CCN(c3ncc4ncnc(Nc5ccc(Oc6ccn7ncnc7c6)c(C)c5)c4n3)C2)C1=O` [Compound 238, (R)-1′-(8-((4-([1,2,4]triazolo[1,5-a]pyridin-7-yloxy)-3-methylphenyl)amino)pyrimido[5,4-d]pyrimidin-2-yl)-3-methylene-[1,3′-bipyrrolidin]-2-one], the IC50 (ErbB2 V777L) is reported as 100 to 500 nM and the IC50 (EGFR WT) is reported as no less than 1000 nM.
In the case of `C=CC(=O)N1CCN(c2ncc3ncnc(Nc4c(F)cc(Oc5ccc6c(c5)nnn6C)cc4F)c3n2)CC1` [Compound 20, 1-(4-(8-((2,6-difluoro-4-((1-methyl-1H-benzo[d][1,2,3]triazol-5-yl)oxy)phenyl)amino)pyrimido[5,4-d]pyrimidin-2-yl)piperazin-1-yl)prop-2-en-1-one], the IC50 (ErbB2 V777L) is reported as 500 to 1000 nM and the IC50 (EGFR WT) is reported as 100 to 500 nM.
Work on `C=CC(=O)N(C)[C@H]1C[C@@H](Oc2ncc3ncnc(Nc4ccc(Oc5cc(F)c6c(c5)ncn6C)c(C)c4)c3n2)C1` [Compound 387, N-((1s,3s)-3-((8-((4-((7-fluoro-1-methyl-1H-benzo[d]imidazol-5-yl)oxy)-3-methylphenyl)amino)pyrimido[5,4-d]pyrimidin-2-yl)oxy)cyclobutyl)-N-methylacrylamide] yielded an IC50 (ErbB2 V777L) of 50 to 100 nM and an IC50 (EGFR WT) of 100 to 500 nM.
Work on `C=CC(=O)N1CCN(c2ncc3ncnc(Nc4cc(C)c(Oc5ccc6c(c5)ncn6C(F)F)cc4OC)c3n2)CC1` [Compound 37, 1-(4-(8-((4-((1-(difluoromethyl)-1H-benzo[d]imidazol-5-y1)oxy)-2-methoxy-5-methylphenyl)amino)pyrimido[5,4-d]pyrimidin-2-yl)piperazin-1-yl)prop-2-en-1-one 2,2,2-trifluoroacetate] yielded an IC50 (ErbB2 V777L) of 50 to 100 nM and an IC50 (EGFR WT) of 100 to 500 nM.
Compound `C=CC(=O)N(C)C1CN(c2ncc3ncnc(Nc4ccc(Oc5ccc6c(c5)nnn6C)c(C)c4F)c3n2)C1` [Compound 28, N-(1-(8-((2-fluoro-3-methyl-4-((1-methyl-1H-benzo[d][1,2,3]triazol-5-yl)oxy)phenyl)amino)pyrimido [5,4-d]pyrimidin-2-yl)azetidin-3-yl)-N-methylacrylamide] has an IC50 (ErbB2 V777L) of 100 to 500 nM and an IC50 (EGFR WT) of 100 to 500 nM.
With `C=CC(=O)N1C2C=C(c3ccc4ncnc(Nc5ccc(Oc6ccc7c(c6)nnn7C)c(C)c5)c4n3)CC1CCC2` (centres unmarked) [Compound 405, 1-(3-(4-((3-methyl-4-((1-methyl-1H-benzo[d][1,2,3]triazol-5-yl)oxy)phenyl)amino)pyrido[3,2-d]pyrimidin-6-yl)-9-azabicyclo[3.3.1]non-2-en-9-yl)prop-2-en-1-one] the IC50 (ErbB2 V777L) was 100 to 500 nM and the IC50 (EGFR WT) was 500 to 1000 nM.
`C=CC(=O)N1CCN(c2ncc3ncnc(Nc4ccc(Oc5ccc6c(c5)nnn6C)c(CC)c4)c3n2)CC1` [Compound 114, 1-(4-(8-((3-ethyl-4-((1-methyl-1H-benzo[d][1,2,3]triazol-5-yl)oxy)phenyl)amino)pyrimido[5,4-d]pyrimidin-2-yl)piperazin-1-yl)prop-2-en-1-one] showed an IC50 (ErbB2 V777L) of 100 to 500 nM and an IC50 (EGFR WT) of 100 to 500 nM.
`Cc1cc(Nc2ncnc3cnc(N4CCN(C(=O)/C=C/CN5CCCC5)CC4)nc23)ccc1Oc1ccc2c(c1)nnn2C` [Compound 52, (E)-1-(4-(8-((3-methyl-4-((1-methyl-1H-benzo[d][1,2,3]triazol-5-yl)oxy)phenyl)amino)pyrimido [5,4-d]pyrimidin-2-yl)piperazin-1-y169yrrolidineolidin-1-yl)but-2-en-1-one] was tested, and the IC50 (ErbB2 V777L) was 50 to 100 nM and the IC50 (EGFR WT) was less than 50 nM.
In the case of `Cc1c(Oc2ccc3c(c2)nnn3C)ccc(Nc2ncnc3ccc(N4CCN(C(=O)/C=C/CF)[C@H](C)C4)nc23)c1F` [Compound 360, (R,E)-4-fluoro-1-(4-(4-((2-fluoro-3-methyl-4-((1-methyl-1H-benzo[d][1,2,3]triazol-5-yl)oxy)phenyl)amino)pyrido[3,2-d]pyrimidin-6-yl)-2-methylpiperazin-1-yl)but-2-en-1-one], the IC50 (ErbB2 V777L) is reported as 50 to 100 nM and the IC50 (EGFR WT) is reported as 100 to 500 nM.
`C=CC(=O)N[C@@H]1CCCN(c2ccc3ncnc(Nc4ccc(Oc5ccc6c(c5)nnn6C)c(C)c4F)c3n2)[C@@H]1C` [Compound 268, N-((2R,3R)-1-(4-((2-fluoro-3-methyl-4-((1-methyl-1H-benzo[d][1,2,3]triazol-5-yl)oxy)phenyl)amino)pyrido[3,2-d]pyrimidin-6-yl)-2-methylpiperidin-3-yl)acrylamide] gave an IC50 (ErbB2 V777L) of 50 to 100 nM and an IC50 (EGFR WT) of 100 to 500 nM.
`C=CC(=O)N1CCN(c2nc3c(Nc4ccc(Oc5ccc6c(c5)nnn6C)c(C)c4)ncnc3cc2C)CC1` [Compound 374, 1-(4-(7-methyl-4-((3-methyl-4-((1-methyl-H-benzo[d][1,2,3]triazol-5-yl)oxy)phenyl)amino)pyrido[3,2-d]pyrimidin-6-yl)piperazin-1-yl)prop-2-en-1-one] gave an IC50 (ErbB2 V777L) of 100 to 500 nM and an IC50 (EGFR WT) of 500 to 1000 nM.
`C=CC(=O)NC1CCN(c2ncc3ncnc(Nc4ccc(Oc5ccc6c(c5)nnn6C)c(C)c4)c3n2)CC1` [Compound 123, N-(1-(8-((3-methyl-4-((1-methyl-1H-benzo[d][1,2,3]triazol-5-yl)oxy)phenyl)amino)pyrimido[5,4-d]pyrimidin-2-yl)piperidin-4-yl)acrylamide] showed an IC50 (ErbB2 V777L) of 100 to 500 nM and an IC50 (EGFR WT) of 100 to 500 nM.
`C=CC(=O)N1CCN(c2ccc3ncnc(Nc4ccc(Oc5ccc6c(c5)nnn6C)c(C)c4)c3n2)C[C@@H]1C1CC1` [Compound 250, (S)-1-(2-cyclopropyl-4-(4-((3-methyl-4-((1-methyl-1H-benzo[d][1,2,3]triazol-5-yl)oxy)phenyl)amino)pyrido[3,2-d]pyrimidin-6-yl)piperazin-1-yl)prop-2-en-1-one] gave an IC50 (ErbB2 V777L) of 100 to 500 nM and an IC50 (EGFR WT) of 500 to 1000 nM.
`C=CC(=O)N1CCN(c2ccc3ncnc(Nc4ccc(Oc5ccc6c(c5)nnn6C)c(C)c4F)c3n2)C[C@H]1C` [Compound 246, (R)-1-(4-(4-((2-fluoro-3-methyl-4-((1-methyl-1H-benzo[d][1,2,3]triazol-5-yl)oxy)phenyl)amino)pyrido[3,2-d]pyrimidin-6-yl)-2-methylpiperazin-1-yl)prop-2-en-1-one] gave an IC50 (ErbB2 V777L) of 50 to 100 nM and an IC50 (EGFR WT) of 100 to 500 nM.
`C=CC(=O)N1CCN(c2ccc3ncnc(Nc4ccc(Oc5ccc6c(c5)nnn6C(F)F)c(C)c4F)c3n2)C[C@H]1C` [Compound 323, (R)-1-(4-(4-((4-((1-(difluoromethyl)-1H-benzo[d][1,2,3]triazol-5-yl)oxy)-2-fluoro-3-methylphenyl)amino)pyrido[3,2-d]pyrimidin-6-yl)-2-methylpiperazin-1-yl)prop-2-en-1-one] gave an IC50 (ErbB2 V777L) of 500 to 1000 nM and an IC50 (EGFR WT) of 100 to 500 nM.
For `C=CC(=O)N1CCN(c2ncc3ncnc(Nc4ccc(Oc5cc6nnn(C)c6c(F)c5C)c(C)c4)c3n2)C[C@H]1C` [Compound 174, (R)-1-(4-(8-((4-((7-fluoro-1,6-dimethyl-1H-benzo[d][1,2,3]triazol-5-yl)oxy)-3-methylphenyl)amino)pyrimido[5,4-d]pyrimidin-2-yl)-2-methylpiperazin-1-yl)prop-2-en-1-one], the IC50 (ErbB2 V777L) was 100 to 500 nM and the IC50 (EGFR WT) was no less than 1000 nM.
Work on `C/C=C/C(=O)N1CCN(c2ncc3ncnc(Nc4ccc(Oc5ccc6c(c5)nnn6C)c(C)c4)c3n2)CC1` [Compound 34, (E)-1-(4-(8-((3-methyl-4-((1-methyl-1H-benzo[d][1,2,3]triazol-5-yl)oxy)phenyl)amino)pyrimido [5,4-d]pyrimidin-2-yl)piperazin-1-yl)but-2-en-1-one] yielded an IC50 (ErbB2 V777L) of 100 to 500 nM and an IC50 (EGFR WT) of no less than 1000 nM.
